Laboratory results as given in PubChem BioAssay AID1963839 (Molecular Pharmacology Branch, DTP, NCI, 2024).

System: 817829-284-R-J1-PDC complex spheroid viability
Assay: Anticancer human tumor 817829-284-R-J1-PDC patient-derived colon adenocarcinoma cell line growth inhibition [POLQ]
Details: for IC50: curve of first compound; for viability, T/C: stronger effect = lower value
Procedure, shortened: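 Complex spheroid viability model combining PDC tumour cells with endothelial (HUVEC) and MSC stromal cells. Novobiocin, ART-558 or RP6685 were tested singly and in combination with standard and investigational anticancer drugs. Each was titrated in half-log steps from near clinical Cmax, or from 10 microM where Cmax was unknown.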

[1] = second compound 0.0316 µM, first compound 0.0316 µM
[2] = second compound 0.0316 µM, first compound 0.1 µM
[3] = second compound 0.0316 µM, first compound 0.316 µM
[4] = second compound 0.0316 µM, first compound 1 µM
[5] = second compound 0.0316 µM, first compound 3.16 µM
[6] = second compound 0.0316 µM, first compound 10 µM
[7] = second compound 0.1 µM, first compound 0.0316 µM
[8] = second compound 0.1 µM, first compound 0.1 µM
[9] = second compound 0.1 µM, first compound 0.316 µM
[10] = second compound 0.1 µM, first compound 1 µM
[11] = second compound 0.1 µM, first compound 3.16 µM
[12] = second compound 0.1 µM, first compound 10 µM
[13] = second compound 0.316 µM, first compound 0.0316 µM
[14] = second compound 0.316 µM, first compound 0.1 µM
[15] = second compound 0.316 µM, first compound 0.316 µM
[16] = second compound 0.316 µM, first compound 1 µM
[17] = second compound 0.316 µM, first compound 3.16 µM
[18] = second compound 0.316 µM, first compound 10 µM
[19] = second compound 1 µM, first compound 0.0316 µM
[20] = second compound 1 µM, first compound 0.1 µM
[21] = second compound 1 µM, first compound 0.316 µM
[22] = second compound 1 µM, first compound 1 µM
[23] = second compound 1 µM, first compound 3.16 µM
[24] = second compound 1 µM, first compound 10 µM
[25] = second compound 3.16 µM, first compound 0.0316 µM
[26] = second compound 3.16 µM, first compound 0.1 µM
[27] = second compound 3.16 µM, first compound 0.316 µM
[28] = second compound 3.16 µM, first compound 1 µM
[29] = second compound 3.16 µM, first compound 3.16 µM
[30] = second compound 3.16 µM, first compound 10 µM
[31] = second compound 10 µM, first compound 0.0316 µM
[32] = second compound 10 µM, first compound 0.1 µM
[33] = second compound 10 µM, first compound 0.316 µM
[34] = second compound 10 µM, first compound 1 µM
[35] = second compound 10 µM, first compound 3.16 µM
[36] = second compound 10 µM, first compound 10 µM
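Also: spheroids exposed to compounds for 7 days.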
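For viability, T/C in this document: 100% = DMSO vehicle-treated spheroids.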

CC1COCCN1c1cc(C2(S(C)(=N)=O)CC2)nc(-c2ccnc3[nH]ccc23)n1 (stereo unspecified) + Cc1cccc(N(C)C(=O)C2C(O)CCN2c2nc(C)cc(C(F)(F)F)c2C#N)c1 was tested, and the IC50 (second compound 0.0316 µM) was 377 nM, the IC50 (second compound 0.1 µM) was 407 nM and the IC50 (second compound 0.316 µM) was 567 nM. It also gave an IC50 (second compound 1 µM) of 337 nM, an IC50 (second compound 3.16 µM) of 394 nM and an IC50 (second compound 10 µM) of 454 nM. For the same compound, the viability, T/C [1] was 114%, the viability, T/C [2] was 82.1% and the viability, T/C [3] was 62%. The viability, T/C [4] was 20.7%, the viability, T/C [5] was 9.12% and the viability, T/C [6] was 5.39%. It also gave a viability, T/C [7] of 80.6%, a viability, T/C [8] of 91.1% and a viability, T/C [9] of 53.5%. It also gave a viability, T/C [10] of 24.7%, a viability, T/C [11] of 7.03% and a viability, T/C [12] of 4.47%. For the same compound, the viability, T/C [13] was 121%, the viability, T/C [14] was 102% and the viability, T/C [15] was 75.9%. The viability, T/C [16] was 25.7%, the viability, T/C [17] was 9.72% and the viability, T/C [18] was 5.65%. The viability, T/C [19] was 104%, the viability, T/C [20] was 118% and the viability, T/C [21] was 52%. It also gave a viability, T/C [22] of 30.7%, a viability, T/C [23] of 7.73% and a viability, T/C [24] of 5.65%. It also gave a viability, T/C [25] of 105%, a viability, T/C [26] of 86.3% and a viability, T/C [27] of 54.6%. For the same compound, the viability, T/C [28] was 28.7%, the viability, T/C [29] was 7.73% and the viability, T/C [30] was 4.73%. The viability, T/C [31] was 75.6%, the viability, T/C [32] was 92.2% and the viability, T/C [33] was 56.6%. The viability, T/C [34] was 27.7%, the viability, T/C [35] was 8.08% and the viability, T/C [36] was 5.23%.

CCCS(=O)(=O)Nc1ccc(F)c(C(=O)c2c[nH]c3ncc(-c4ccc(Cl)cc4)cc23)c1F + Cc1cccc(N(C)C(=O)C2C(O)CCN2c2nc(C)cc(C(F)(F)F)c2C#N)c1 was tested, and the IC50 (second compound 0.0316 µM) was 2980 nM, the IC50 (second compound 0.1 µM) was 4450 nM and the IC50 (second compound 0.316 µM) was 4070 nM. The IC50 (second compound 1 µM) was 3710 nM, the IC50 (second compound 3.16 µM) was 3810 nM and the IC50 (second compound 10 µM) was 2390 nM. For the same compound, the viability, T/C [1] was 82.6%, the viability, T/C [2] was 75.3% and the viability, T/C [3] was 81.4%. The viability, T/C [4] was 84.3%, the viability, T/C [5] was 48.3% and the viability, T/C [6] was 6.4%. The viability, T/C [7] was 86.5%, the viability, T/C [8] was 83.7% and the viability, T/C [9] was 81.9%. The viability, T/C [10] was 80.8%, the viability, T/C [11] was 68.1% and the viability, T/C [12] was 8.39%. It also gave a viability, T/C [13] of 94.9%, a viability, T/C [14] of 89.6% and a viability, T/C [15] of 76.4%. It also gave a viability, T/C [16] of 81.8%, a viability, T/C [17] of 63.8% and a viability, T/C [18] of 6.86%. It also gave a viability, T/C [19] of 103%, a viability, T/C [20] of 91.9% and a viability, T/C [21] of 90.8%. For the same compound, the viability, T/C [22] was 80.5%, the viability, T/C [23] was 58.2% and the viability, T/C [24] was 6.61%. The viability, T/C [25] was 104%, the viability, T/C [26] was 97% and the viability, T/C [27] was 83.3%. It also gave a viability, T/C [28] of 74.3%, a viability, T/C [29] of 66.5% and a viability, T/C [30] of 8.21%. The viability, T/C [31] was 85.7%, the viability, T/C [32] was 76.5% and the viability, T/C [33] was 66.5%. It also gave a viability, T/C [34] of 64.2%, a viability, T/C [35] of 49.5% and a viability, T/C [36] of 4.19%.

In the case of CNCc1ccc(-c2[nH]c3cc(F)cc4c3c2CCNC4=O)cc1 + Cc1cccc(N(C)C(=O)C2C(O)CCN2c2nc(C)cc(C(F)(F)F)c2C#N)c1, the IC50 (second compound 0.0316 µM) is reported as 2240 nM, the IC50 (second compound 0.1 µM) is reported as 7640 nM and the IC50 (second compound 0.316 µM) is reported as 3410 nM. It also gave an IC50 (second compound 1 µM) of 2690 nM, an IC50 (second compound 3.16 µM) of 3320 nM and an IC50 (second compound 10 µM) of 3840 nM. For the same compound, the viability, T/C [1] was 87.5%, the viability, T/C [2] was 67.2% and the viability, T/C [3] was 68.4%. It also gave a viability, T/C [4] of 58.2%, a viability, T/C [5] of 49.9% and a viability, T/C [6] of 33.9%. It also gave a viability, T/C [7] of 74.9%, a viability, T/C [8] of 67.8% and a viability, T/C [9] of 86.7%. The viability, T/C [10] was 60.4%, the viability, T/C [11] was 74.7% and the viability, T/C [12] was 43%. It also gave a viability, T/C [13] of 97.8%, a viability, T/C [14] of 76.5% and a viability, T/C [15] of 70.5%. For the same compound, the viability, T/C [16] was 66.6%, the viability, T/C [17] was 53.7% and the viability, T/C [18] was 36.3%. It also gave a viability, T/C [19] of 104%, a viability, T/C [20] of 71.9% and a viability, T/C [21] of 86.4%. It also gave a viability, T/C [22] of 55.9%, a viability, T/C [23] of 51.8% and a viability, T/C [24] of 33.1%. It also gave a viability, T/C [25] of 82.4%, a viability, T/C [26] of 54.2% and a viability, T/C [27] of 79.1%. For the same compound, the viability, T/C [28] was 77.9%, the viability, T/C [29] was 50.9% and the viability, T/C [30] was 30.3%. It also gave a viability, T/C [31] of 70.9%, a viability, T/C [32] of 78.1% and a viability, T/C [33] of 67.1%. For the same compound, the viability, T/C [34] was 62.5%, the viability, T/C [35] was 55.6% and the viability, T/C [36] was 31.4%.
